pIC50: −log10 of the molar value.
target: T1, hK-RasG12C activation by hSOS1 (Homo sapiens, UniProt Q07889); test: hK-RasG12C activation assay by hSOS1 (Biochemical Assay 3, HTRF); conditions: mean; assay 3, loading with fluorescent GTP-analog; read-out: K-RasG12C activation by SOS IC50 - [mol/l] (mean)
T1 construct: His10-hSOS1; made in house; host or cells: E. coli BL21 (DE3)
T1 sequence (Q07889 with tags, fused parts or gaps): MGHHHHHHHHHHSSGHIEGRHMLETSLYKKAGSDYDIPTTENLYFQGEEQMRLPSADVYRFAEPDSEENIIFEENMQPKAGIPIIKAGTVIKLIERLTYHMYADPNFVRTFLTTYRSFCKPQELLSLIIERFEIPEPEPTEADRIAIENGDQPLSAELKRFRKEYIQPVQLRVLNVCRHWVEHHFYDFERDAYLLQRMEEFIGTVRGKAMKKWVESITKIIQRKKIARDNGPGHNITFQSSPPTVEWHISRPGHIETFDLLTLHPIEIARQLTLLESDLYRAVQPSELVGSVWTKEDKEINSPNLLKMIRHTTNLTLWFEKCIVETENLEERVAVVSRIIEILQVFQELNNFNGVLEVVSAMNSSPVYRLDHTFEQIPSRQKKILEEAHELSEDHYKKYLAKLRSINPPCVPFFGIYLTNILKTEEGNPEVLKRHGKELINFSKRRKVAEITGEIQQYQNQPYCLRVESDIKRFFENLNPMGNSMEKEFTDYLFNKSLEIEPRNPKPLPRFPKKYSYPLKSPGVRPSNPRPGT
From the text: Biochemical Assay 3: hK-RasG12C Activation Assay by hSOS1
K-Ras is a small GTPase that can bind GDP and GTP. The guanine nucleotide exchange factor SOS1 catalyzes the activation of K-Ras by promoting the exchange of GDP to GTP. SOS1 binds to K-Ras-GDP thereby opening the GDP-binding pocket to facilitate GDP release. Rebinding of excess nucleotide leads to dissociation of the K-Ras-SOS1 intermediate complex leaving K-Ras loaded with the nucleotide.
This assay quantifies human SOS1- (hSOS1-) mediated loading of human K-Ras^G12C-GDP (hK-RasG12C-GDP) with a fluorescent GTP-analog. Detection of successful loading is achieved by measuring homogenous time-resolved fluorescence resonance energy transfer (HTRF) from antiGST-Terbium (FRET donor) bound to GST-hK-RasG12C (see below) to the loaded fluorescent GTP analog (FRET-acceptor).
The fluorescent GTP-analog EDA-GTP-Dy647P1 (2′/3′-O-(2-Aminoethyl-carbamoyl)-guanosine-5′-triphosphate labelled with Dy647P1 (Dyomics GmbH, Germany)) is synthesized by Jena Biosciences GmbH (Germany) and supplied as a 1mM aqueous solution.
(§1) The assay buffer containes 10 mM HEPES pH 7.4 (Applichem), 150 mM NaCl (Sigma), 5 mM MgCl2 (Sigma), 1 mM DTT (Thermofisher), 0.05% BSA Fraction V, pH 7.0, (ICN Biomedicals), 0.0025% (v/v) Igepal (Sigma).
The expression and purification of N-terminal GST-tagged human K-RasG12C and N-terminal His-tagged hSOS1 is described below. Concentrations of protein batches used are optimized to be within the linear range of the HTRF signal. A hRas working solution is prepared in assay buffer containing typically 100 nM GST-hK-RasG12C and 2 nM antiGST-Tb (Cisbio, France). A hSOS1 working solution is prepared in assay buffer containing typically 20nM hSOS1 and 200 nM EDA-GTP-Dy647P1. An inhibitor control solution is prepared in assay buffer containing 200 nM EDA-GTP-Dy647P1 without hSOS1.
(§2) Fifty nl of a 100-fold concentrated solution of the test compound in DMSO are transferred into a black microtiter test plate (384 or 1536, Greiner Bio-One, Germany). For this, either a Hummingbird liquid handler (Digilab, Mass., USA) or an Echo acoustic system (Labcyte, Calif., USA) is used.
(§3) All steps of the assay are performed at 20° C. A volume of 2.5 μl of the hRas working solution is added to all wells of the test plate using a Multidrop dispenser (Thermo Labsystems). After 10 min preincubation, 2.5 μl of the hSOS1 working solution are added to all wells except for those wells at the side of the test plate that are subsequently filled with 2.5 μl of the inhibitor control solution. After 30 min incubation the fluorescence is measured with a Pherastar (BMG, Germany) using the HTRF module (excitation 337 nm, emission 1: 620 nm, emission 2: 665 nm).
(§4) The ratiometric data (emission 2 divided by emission 1) are normalized using the controls (DMSO=0% inhibition, inhibition control wells with inhibitor control solution=100% inhibition). Compounds are tested in duplicates at up to 11 concentrations (for example 20 μM, 5.7 μM, 1.6 μM, 0.47 μM, 0.13 μM, 38 nM, 11 nM, 3.1 nM, 0.89 nM, 0.25 nM and 0.073 nM). IC50 values are calculated by 4-Parameter fitting using a commercial software package (Genedata Screener, Switzerland).

**Q.** How did the pIC50 turn out when `CC(=O)N[C@@H]1CCN(c2cc3c(N[C@H](C)c4cccc(C(F)F)c4F)nc(C)nc3c(C)n2)C1` was run?
**A.** The pIC50 was 6.68.

**Q.** How did the pIC50 turn out when `Cc1nc(N[C@H](C)c2cccc(C(F)F)c2F)c2cc(F)nc(C)c2n1` was run?
**A.** Its pIC50 is under 4.70.

**Q.** `Cc1nc(N[C@H](C)c2cccc(C(F)F)c2F)c2cc(F)ncc2n1` was tested. Which pIC50 did it give?
**A.** Its pIC50 is under 4.70.

**Q.** How did the pIC50 turn out when `Cc1nc(N[C@H](C)c2cccc(C(F)F)c2F)c2cc(N3CCCC3)ncc2n1` was run?
**A.** The pIC50 was 6.60.

target: T2, human SOS1 (hSOS1) with human K-RasG12C (hK-RasG12C) (Homo sapiens, UniProt Q07889); test: hK-RasG12C interaction assay with hSOS1 (Biochemical Assay 1, HTRF); type: binding; conditions: mean, read-out: K-RasG12C- SOS interaction assay IC50 - [mol/l] (mean)
T2 construct: His10-hSOS1; made in house; host or cells: E. coli BL21 (DE3)
T2 sequence (Q07889 with tags, fused parts or gaps): T1 sequence (Q07889 with tags, fused parts or gaps)
Protocol: Biochemical Assay 1: hK-RasG12C Interaction Assay with hSOS1
This assay quantifies the equilibrium interaction of human SOS1 (hSOS1) with human K-Ras^G12C (hK-RasG12C). Detection of the interaction is achieved by measuring homogenous time-resolved fluorescence resonance energy transfer (HTRF) from antiGST-Europium (FRET donor) bound to GST-K-RasG12C to anti-6His-XL665 bound to His-tagged hSOS1 (FRET-acceptor).
The assay buffer containes 5 mM HEPES pH 7.4 (Applichem), 150 mM NaCl (Sigma), 10 mM EDTA (Promega), 1 mM DTT (Thermofisher), 0.05% BSA Fraction V, pH 7.0, (ICN Biomedicals), 0.0025% (v/v) Igepal (Sigma) and 100 mM KF (FLUKA).
The expression and purification of N-terminal GST-tagged hK-RasG12C and N-terminal His-tagged hSOS1 is described below. Concentrations of protein batches used are optimized to be within the linear range of the HTRF signal. A Ras working solution is prepared in assay buffer containing typically 10 nM GST-hK-RasG12C and 2 nM antiGST-Eu(K) (Cisbio, France). A SOS1 working solution is prepared in assay buffer containing typically 20 nM His-hSOS1 and 10 nM anti-6His-XL665 (Cisbio, France). An inhibitor control solution is prepared in assay buffer containing 10 nM anti-6His-XL665 without hSOS1.
as §2
as §3, with “Ras” for “hRas”, “2” for “10”, “SOS1” for “hSOS1”, “60” for “30”, “620nm,” for “620 nm,”
as §4

**Q.** How did the pIC50 turn out when `CC(=O)N[C@@H]1CCN(c2cc3c(N[C@H](C)c4cccc(C(F)F)c4F)nc(C)nc3c(C)n2)C1` was run?
**A.** The pIC50 was 7.25.

**Q.** How did the pIC50 turn out when `Cc1nc(N[C@H](C)c2cccc(C(F)F)c2F)c2cc(F)nc(C)c2n1` was run?
**A.** Its pIC50 is under 4.70.

**Q.** `Cc1nc(N[C@H](C)c2cccc(C(F)F)c2F)c2cc(F)ncc2n1` was tested. Which pIC50 did it give?
**A.** The pIC50 was under 4.70.

**Q.** How did the pIC50 turn out when `Cc1nc(N[C@H](C)c2cccc(C(F)F)c2F)c2cc(N3CCCC3)ncc2n1` was run?
**A.** Its pIC50 is 6.73.

target: T3, hK-RasG12C activation by hSOS1 at high GTP concentration (Homo sapiens, UniProt Q07889); test: hK-RasG12C activation assay by hSOS1 at high GTP concentration (Biochemical Assay 2, HTRF); conditions: mean; assay 2, high concentration of 50 μM GTP; read-out: K-Ras activation by SOS high GTP (off-HTRF) IC50 - [mol/l] (mean)
T3 construct: His10-hSOS1; made in house; host or cells: E. coli BL21 (DE3)
T3 sequence (Q07889 with tags, fused parts or gaps): T1 sequence (Q07889 with tags, fused parts or gaps)
From the text: Biochemical Assay 2: hK-RasG12C Activation Assay by hSOS1 at High GTP Concentration
This assay quantifies human SOS1-mediated nucleotide exchange of human K-Ras^G12C (hK-RasG12C) preloaded with a fluorescent […] and in presence of an excess of free GTP. Loaded hK-RasG12C generates a high HTRF-signal by energy transfer from antiGST-Terbium (FRET donor) bound to hK-Ras to the loaded fluorescent GDP analog (FRET-acceptor). hSOS1 activity exchanges the fluorescent GDP for non-fluorescent GTP and therefore leads to a reduction of the HTRF signal.
The fluorescent GDP-analog EDA-GDP-Dy647P1 (2′/3′-O-(2-Aminoethyl-carbamoyl)-guanosine-5′-diphosphate labelled with Dy647P1 (Dyomics GmbH, Germany)) is synthesized by Jena Biosciences GmbH (Germany) and supplied as a 1 mM aqueous solution.
The expression and purification of N-terminal GST-tagged human K-RasG12C and N-terminal His-tagged human SOS1 is described below. Concentrations of protein batches used are optimized to be within the linear range of the HTRF signal.
Preparation of GST-tagged hK-RasG12C loaded with fluorescent nucleotide is performed as follows: incubation of 11.5 μM hK-Ras^G12C with 5-fold excess GDP-Dy647 nucleotide (54 μM) in 500 μl NLS-buffer (RAS activation Kit Jena Bioscience, Kat. #PR-950) for 10 min at 37° C. Addition of 20 μl 1 M MgCl2 (Sigma) to final 40 mM and store on ice. Purification into buffer (10 mM HEPES pH 7.4 (Applichem), 150 mM NaCl (Sigma), 5 mM MgCl2 (Sigma)) by use of a PD-Minitrap desalting column (GE Healthcare). Concentration of 1 ml purified hK-Ras-GDP-Dy647 is approx. 4-5 μM.
as §1
A Ras working solution is prepared in assay buffer containing typically 80 nM loaded GST-hK-RasG12C-EDA-GDP-Dy647P1 and 2 nM antiGST-Tb (Cisbio, France). A hSOS1 working solution is prepared in assay buffer containing typically 8 nM His-hSOS1 and 100 μM GTP (Jena Bioscience, Germany). An inhibitor control solution is prepared in assay buffer containing the same concentration of hSOS1 without GTP.
Alternatively, the inhibitor control solution is prepared by supplementing the hSOS1 working solution with 20 μM of 6,7-dimethoxy-N-[(1R)-1-(1-naphthyl)ethyl]quinazolin-4-amine which is used to calibrate the assay.
as §2
as §3, with “Ras” for “hRas”, “2” for “10”, “20” for “30”
as §4

**Q.** `CC(=O)N[C@@H]1CCN(c2cc3c(N[C@H](C)c4cccc(C(F)F)c4F)nc(C)nc3c(C)n2)C1` was tested. Which pIC50 did it give?
**A.** Its pIC50 is 6.59.

**Q.** `Cc1nc(N[C@H](C)c2cccc(C(F)F)c2F)c2cc(F)ncc2n1` was tested. Which pIC50 did it give?
**A.** The pIC50 was under 4.70.

**Q.** How did the pIC50 turn out when `Cc1nc(N[C@H](C)c2cccc(C(F)F)c2F)c2cc(N3CCCC3)ncc2n1` was run?
**A.** The pIC50 was 6.49.

target: T4, K-Ras-wt activation by SOS (Homo sapiens, UniProt Q07889); test: K-Ras-wt activation by SOS; type: biochemical; conditions: mean; K-Ras wild type; read-out: K-Ras-wt activation by SOS IC50 - [mol/l] (mean)
T4 sequence (Q07889 564-1049): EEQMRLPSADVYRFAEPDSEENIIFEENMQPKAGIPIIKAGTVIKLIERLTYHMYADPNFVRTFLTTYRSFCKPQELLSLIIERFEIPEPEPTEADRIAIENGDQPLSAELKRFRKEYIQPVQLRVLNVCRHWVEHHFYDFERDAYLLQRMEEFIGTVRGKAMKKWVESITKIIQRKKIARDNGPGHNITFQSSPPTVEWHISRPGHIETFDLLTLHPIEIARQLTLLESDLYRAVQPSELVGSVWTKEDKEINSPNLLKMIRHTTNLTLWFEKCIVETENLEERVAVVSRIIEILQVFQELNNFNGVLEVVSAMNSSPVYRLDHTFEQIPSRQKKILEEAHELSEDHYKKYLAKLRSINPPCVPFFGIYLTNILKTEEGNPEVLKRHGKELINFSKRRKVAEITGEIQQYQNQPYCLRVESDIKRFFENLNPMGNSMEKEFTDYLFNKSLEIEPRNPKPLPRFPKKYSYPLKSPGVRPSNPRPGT

**Q.** With `CC(=O)N[C@@H]1CCN(c2cc3c(N[C@H](C)c4cccc(C(F)F)c4F)nc(C)nc3c(C)n2)C1` as the molecule, how does the pIC50 read?
**A.** Its pIC50 is 7.08.

**Q.** With `Cc1nc(N[C@H](C)c2cccc(C(F)F)c2F)c2cc(F)nc(C)c2n1` as the molecule, how does the pIC50 read?
**A.** Its pIC50 is under 4.70.

**Q.** With `Cc1nc(N[C@H](C)c2cccc(C(F)F)c2F)c2cc(F)ncc2n1` as the molecule, how does the pIC50 read?
**A.** The pIC50 was under 4.70.

**Q.** How did the pIC50 turn out when `Cc1nc(N[C@H](C)c2cccc(C(F)F)c2F)c2cc(N3CCCC3)ncc2n1` was run?
**A.** Its pIC50 is 6.76.
